According to patent publication US20250163057A1, “DCN-1 MODULATING COMPOUNDS AND METHODS OF USE THEREOF” (Cellarity, Inc., priority 2023, published 2025):

Columns and labels:
[1] = test system: fetal hemoglobin gene HBG1; experiment: HBG1 Nanostring Assay in CD34+ HSPC erythroid differentiation culture; assay type: cell-based, human; settings: for EC50: Homo sapiens, 240 h, HBG1 induction, Day10 of erythroid differentiation; for Nanostring Ymax obs (%): relative to a control compound (C1)
Outline: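 HBG1 counts came from direct nCounter hybridization (67° C, 22 h) of day-10 lysates, normalized to ERCC positive controls and a housekeeping gene, giving EC50 and Ymax versus a reference compound. Compounds in 0.1% DMSO were present from day −2 while cells underwent EPO/SCF/IL-3 erythroid differentiation, with IL-3 dropped at day 7, at 37° C.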

[2] = test system: Cullin-3 (CUL3) neddylation; experiment: AlphaLISA assay for Cullin-3 (CUL3) neddylation in TF 1 cells; assay type: cell-based; settings: Homo sapiens, TF-1, 3 h, 3 hours treatment
Outline: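 Neddylated CUL3 was quantified by AlphaLISA in lysates of TF 1 cells exposed for 3 h to test compound in IMDM without supplements. Percent inhibition set between vehicle and 1 μM DI-1548 positive control; IC50 derived by Hill-equation fitting of dose-response curves.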

Row | SMILES | EC50 [1] [µM] | Nanostring Ymax obs (%) [1] | IC50 [2] [µM]
1 | CCc1cccc(C(=O)N[C@@H]2C(=O)N(CC)c3c(c(C(=O)N4[C@H](C#N)C[C@H]5C[C@H]54)nn3C3CCOCC3)[C@@H]2C2CC2)c1 [Compound I-552, N-((4S,5S)-3-((1R,3S,5R)-3-cyano-2-azabicyclo[3.1.0]hexane-2-carbonyl)-4-cyclopropyl-7-ethyl-6-oxo-1-(tetrahydro-2H-pyran-4-yl)-4,5,6,7-tetrahydro-1H-pyrazolo[3,4-b]pyridin-5-yl)-3-ethylbenzamide] | ≤ 0.1 | +++ (Nanostring Ymax greater than 100.0) | ≤ 0.1
2 | CCN1C(=O)[C@@H](NC(=O)c2cccc(C(F)(F)F)c2)[C@@H](C2CC2)c2c(C(=O)N3CCNC[C@H]3C#N)nn(C3CCOCC3)c21 [Compound I-582] | 0.1 to 1 | +++ (Nanostring Ymax greater than 100.0) | ≤ 0.1
3 | CCN1C(=O)[C@@H](NC(=O)c2cccc(C(F)(F)F)c2)[C@@H](C2CC2)c2c(C(=O)N3CS(=O)(=O)C[C@H]3C#N)nn(C3CCOCC3)c21 [Compound I-617] | – | + (Nanostring Ymax greater than or equal to 0.0 and less than or equal to 50.0) | ≤ 0.1
4 | CCN1C(=O)[C@@H](NC(=O)c2cccc(C(F)(F)F)c2)[C@@H](C2CCC2)c2c(C(=O)N3CCC[C@H]3C#N)nn(C3CCOCC3)c21 [Compound I-692] | ≤ 0.1 | +++ (Nanostring Ymax greater than 100.0) | ≤ 0.1
